Source: PubChem BioAssay AID1259407 (Chemical Carcinogenesis Research Information System (CCRIS), 2018)
Calls of active or inactive are those of the source. No rule for the calls is given here.

Tested on: CCRIS mutagenicity, Ames/micronucleus/aberration tests
Assay: CCRIS mutagenicity studies
[1] = Test System: AMES SALMONELLA TYPHIMURIUM, Strain/Indicator: TA97, Metabolic Activation: NONE, Method: PREINCUBATION
[2] = Test System: AMES SALMONELLA TYPHIMURIUM, Strain/Indicator: TA98, Metabolic Activation: NONE, Method: PREINCUBATION
[3] = Test System: AMES SALMONELLA TYPHIMURIUM, Strain/Indicator: TA98, Metabolic Activation: NONE, Method: STANDARD PLATE
[4] = Test System: AMES SALMONELLA TYPHIMURIUM, Strain/Indicator: TA98, Metabolic Activation: RAT, LIVER, S-9, AROCLOR 1254, Method: STANDARD PLATE
[5] = Test System: AMES SALMONELLA TYPHIMURIUM, Strain/Indicator: TA100, Metabolic Activation: NONE, Method: STANDARD PLATE
[6] = Test System: AMES SALMONELLA TYPHIMURIUM, Strain/Indicator: TA100, Metabolic Activation: RAT, LIVER, S-9, AROCLOR 1254, Method: STANDARD PLATE
[7] = Test System: AMES SALMONELLA TYPHIMURIUM, Strain/Indicator: TA102, Metabolic Activation: NONE, Method: PREINCUBATION

Measured: mutagenic call

CC(C)=CCC1=C(O)c2ccccc2C(=O)C1=O
inactive: [1] inactive; negative | Test System: AMES SALMONELLA TYPHIMURIUM, Strain/Indicator: TA97, Metabolic Activation: RAT, LIVER, S-9, PHENOBARBITAL AND 5,6-BENZOFLAVONE, Method: PREINCUBATION inactive; negative | Test System: AMES SALMONELLA TYPHIMURIUM, Strain/Indicator: TA98, Metabolic Activation: HAMSTER, LIVER, S-9, AROCLOR 1254, Method: STANDARD PLATE inactive; negative | [2] inactive; negative | [3] inactive; negative | [4] inactive; negative | Test System: AMES SALMONELLA TYPHIMURIUM, Strain/Indicator: TA98, Metabolic Activation: RAT, LIVER, S-9, PHENOBARBITAL AND 5,6-BENZOFLAVONE, Method: PREINCUBATION inactive; negative | Test System: AMES SALMONELLA TYPHIMURIUM, Strain/Indicator: TA100, Metabolic Activation: HAMSTER, LIVER, S-9, AROCLOR 1254, Method: STANDARD PLATE inactive; negative | Test System: AMES SALMONELLA TYPHIMURIUM, Strain/Indicator: TA100, Metabolic Activation: NONE, Method: PREINCUBATION inactive; negative | [5] inactive; negative | [6] inactive; negative | Test System: AMES SALMONELLA TYPHIMURIUM, Strain/Indicator: TA100, Metabolic Activation: RAT, LIVER, S-9, PHENOBARBITAL AND 5,6-BENZOFLAVONE, Method: PREINCUBATION inactive; negative | [7] inactive; negative | Test System: AMES SALMONELLA TYPHIMURIUM, Strain/Indicator: TA102, Metabolic Activation: RAT, LIVER, S-9, PHENOBARBITAL AND 5,6-BENZOFLAVONE, Method: PREINCUBATION inactive; negative | Test System: AMES SALMONELLA TYPHIMURIUM, Strain/Indicator: TA104, Metabolic Activation: NONE, Method: PREINCUBATION inactive; negative | Test System: AMES SALMONELLA TYPHIMURIUM, Strain/Indicator: TA104, Metabolic Activation: RAT, LIVER, S-9, PHENOBARBITAL AND 5,6-BENZOFLAVONE, Method: PREINCUBATION inactive; negative | Test System: AMES SALMONELLA TYPHIMURIUM, Strain/Indicator: TA1535, Metabolic Activation: HAMSTER, LIVER, S-9, AROCLOR 1254, Method: STANDARD PLATE inactive; negative | Test System: AMES SALMONELLA TYPHIMURIUM, Strain/Indicator: TA1535, Metabolic Activation: NONE, Method: PREINCUBATION inactive; negative | Test System: AMES SALMONELLA TYPHIMURIUM, Strain/Indicator: TA1535, Metabolic Activation: NONE, Method: STANDARD PLATE inactive; negative | Test System: AMES SALMONELLA TYPHIMURIUM, Strain/Indicator: TA1535, Metabolic Activation: RAT, LIVER, S-9, AROCLOR 1254, Method: STANDARD PLATE inactive; negative | Test System: AMES SALMONELLA TYPHIMURIUM, Strain/Indicator: TA1535, Metabolic Activation: RAT, LIVER, S-9, PHENOBARBITAL AND 5,6-BENZOFLAVONE, Method: PREINCUBATION inactive; negative | Test System: AMES SALMONELLA TYPHIMURIUM, Strain/Indicator: TA1537, Metabolic Activation: HAMSTER, LIVER, S-9, AROCLOR 1254, Method: STANDARD PLATE inactive; negative | Test System: AMES SALMONELLA TYPHIMURIUM, Strain/Indicator: TA1537, Metabolic Activation: NONE, Method: PREINCUBATION inactive; negative | Test System: AMES SALMONELLA TYPHIMURIUM, Strain/Indicator: TA1537, Metabolic Activation: NONE, Method: STANDARD PLATE inactive; negative | Test System: AMES SALMONELLA TYPHIMURIUM, Strain/Indicator: TA1537, Metabolic Activation: RAT, LIVER, S-9, AROCLOR 1254, Method: STANDARD PLATE inactive; negative | Test System: AMES SALMONELLA TYPHIMURIUM, Strain/Indicator: TA1537, Metabolic Activation: RAT, LIVER, S-9, PHENOBARBITAL AND 5,6-BENZOFLAVONE, Method: PREINCUBATION inactive; negative | Test System: AMES SALMONELLA TYPHIMURIUM, Strain/Indicator: TA1538, Metabolic Activation: HAMSTER, LIVER, S-9, AROCLOR 1254, Method: STANDARD PLATE inactive; negative | Test System: AMES SALMONELLA TYPHIMURIUM, Strain/Indicator: TA1538, Metabolic Activation: NONE, Method: PREINCUBATION inactive; negative | Test System: AMES SALMONELLA TYPHIMURIUM, Strain/Indicator: TA1538, Metabolic Activation: NONE, Method: STANDARD PLATE inactive; negative | Test System: AMES SALMONELLA TYPHIMURIUM, Strain/Indicator: TA1538, Metabolic Activation: RAT, LIVER, S-9, AROCLOR 1254, Method: STANDARD PLATE inactive; negative | Test System: AMES SALMONELLA TYPHIMURIUM, Strain/Indicator: TA1538, Metabolic Activation: RAT, LIVER, S-9, PHENOBARBITAL AND 5,6-BENZOFLAVONE, Method: PREINCUBATION inactive; negative | Test System: AMES SALMONELLA TYPHIMURIUM, Strain/Indicator: TA2637, Metabolic Activation: NONE, Method: PREINCUBATION inactive; negative | Test System: AMES SALMONELLA TYPHIMURIUM, Strain/Indicator: TA2637, Metabolic Activation: RAT, LIVER, S-9, PHENOBARBITAL AND 5,6-BENZOFLAVONE, Method: PREINCUBATION inactive; negative

CCNC(=O)CC[C@H](N)C(=O)O
inactive: [1] inactive; negative | Test System: AMES SALMONELLA TYPHIMURIUM, Strain/Indicator: TA97, Metabolic Activation: RAT, LIVER, S-9, AROCLOR 1254, Method: PREINCUBATION inactive; negative | [7] inactive; negative | Test System: AMES SALMONELLA TYPHIMURIUM, Strain/Indicator: TA102, Metabolic Activation: RAT, LIVER, S-9, AROCLOR 1254, Method: PREINCUBATION inactive; negative

C1=Cc2cc3cc4ccccc4cc3c3cccc1c23
active: Test System: CHINESE HAMSTER OVARY, Strain/Indicator: V-79/6-THIOGUANINE, Metabolic Activation: RAT, LIVER, S-9, AROCLOR 1254, Method: FLASK ASSAY active; positive | Test System: CHINESE HAMSTER V-79, Strain/Indicator: V-79/6-THIOGUANINE, Metabolic Activation: RAT, LIVER, S-9, AROCLOR 1254, Method: SUSPENSION/PLATE active; positive
inactive: Test System: CHINESE HAMSTER OVARY, Strain/Indicator: V-79/6-THIOGUANINE, Metabolic Activation: SHE CELL MEDIATED, Method: FLASK ASSAY inactive; negative

C[C@H](CCC(=O)O)[C@H]1CC[C@H]2[C@@H]3C(=O)C[C@@H]4C[C@H](O)CC[C@]4(C)[C@H]3CC[C@]12C
inactive: Test System: AMES SALMONELLA TYPHIMURIUM, Strain/Indicator: TA98, Metabolic Activation: NONE, Method: FLUCTUATION TEST inactive; negative | [2] inactive; negative | Test System: AMES SALMONELLA TYPHIMURIUM, Strain/Indicator: TA98, Metabolic Activation: RAT, LIVER, S-9, PCB, Method: PREINCUBATION inactive; negative | Test System: AMES SALMONELLA TYPHIMURIUM, Strain/Indicator: TA100, Metabolic Activation: NONE, Method: FLUCTUATION TEST inactive; negative

O=C(O)CCC(=O)N(O)c1ccc(Cl)cc1
active: [4] active; positive | [6] active; positive
inactive: [3] inactive; negative | [5] inactive; negative
